Experimental data published in patent publication US20080182851A1, “ACETYLENE DERIVATIVES AS STEAROYL COA DESATURASE INHIBITORS” (Glenmark Pharmaceuticals S.A., priority 2006, published 2008).

Molecular target: T1, human SCD1 enzyme (Homo sapiens, UniProt O00767)
T1 sequence (O00767 1-359): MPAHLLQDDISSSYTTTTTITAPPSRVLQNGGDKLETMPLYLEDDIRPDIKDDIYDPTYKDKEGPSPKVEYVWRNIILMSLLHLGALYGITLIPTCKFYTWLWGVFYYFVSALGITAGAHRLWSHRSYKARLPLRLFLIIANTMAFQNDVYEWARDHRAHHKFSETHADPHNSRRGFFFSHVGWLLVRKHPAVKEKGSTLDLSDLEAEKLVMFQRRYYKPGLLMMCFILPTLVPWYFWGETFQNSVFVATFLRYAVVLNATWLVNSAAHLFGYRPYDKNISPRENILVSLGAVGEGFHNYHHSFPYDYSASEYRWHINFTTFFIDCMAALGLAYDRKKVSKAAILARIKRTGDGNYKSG
Assay: Tritiated water release assay (conversion of radiolabeled stearoyl-CoA to oleoyl-CoA)
Format: biochemical
Conditions: 10 μM concentration of test compounds; microsomal SCD1, 3H stearoyl CoA, 37° C. 30 minutes; percent of control reaction; read-out: % Inhibition
Description: The in-vitro activity of the compounds of the present invention against stearoyl coenzyme desaturase was determined by following conversion of radiolabeled-stearoyl-CoA to oleoyl-CoA using human SCD1 enzyme using a previously published assay procedure with some modifications (Barbara R Talamo and Konrad Bloch, Analytical Biochemistry, 1969, 29, 300-304). This assay protocol is only illustrative and is not meant to limit to the scope of the present invention.
In this assay the microsomal SCD1 enzyme desaturates its substrate, Stearoyl CoA (purchased from American Radiochemicals Ltd.) which is tritiated at C9 and C10 positions. Test compounds were dissolved in dimethylsulfoxide and tested at 10 μM final concentration. Before substrate addition, the test compound or standard reference compound (conjugated linoleic acid at 100 μM final concentration) were pre-incubated in reaction buffer with the enzyme for 10 minutes at 30° C. with shaking. Reaction buffer was prepared as described in literature (Obukowicz et al. JPET, 1998, 287, 157-166) except that the MgCl2, ATP (purchased from Sigma) and CoA (purchased from Sigma) concentrations were changed to 4.9 mM, 7.2 mM and 0.54 mM respectively. The desaturation reaction was initiated by addition of 0.5 μCi of ^3H stearoyl CoA and incubated at 37° C. for 30 minutes with shaking. A control reaction was set without any test compound/reference inhibitor to capture maximum enzymatic activity in the assay. Inhibition of enzyme activity was calculated as a percent of this control reaction giving maximum catalysis and the results are given in Table 5.
Table 5: Tritiated water release assay at 10 μM substrate concentration *Conjugated Linoleic acid was used as a reference standard

O=C(O)COc1cccc(C#Cc2ccc(N3CCN(C(=O)c4ccccc4C(F)(F)F)CC3)nc2)c1 [Example 27, 2-[3-(2-{6-[4-(2-Trifluoromethylbenzoyl)piperazino]-3-pyridyl}-1-ethynyl)phenoxy]-acetic acid]
inhibition at 10 µM: 30%

O=C(c1cc(Cl)ccc1Cl)N1CCN(c2ccc(C#Cc3cccc(O)c3)cn2)CC1 [Example 28]
inhibition at 10 µM: 98%

CC(=O)Oc1ccccc1C#Cc1ccc(N2CCN(C(=O)c3ccccc3C(F)(F)F)CC2)nc1 [Example 29]
inhibition at 10 µM: 24%

COc1ccc(C#Cc2ccc(N3CCN(C(=O)c4ccccc4C(F)(F)F)CC3)nc2)cc1 [Example 30, 4-{5-[2-(4-Methoxyphenyl)-1-ethynyl]-2-pyridyl}piperazino-2-trifluoromethylphenyl methanone]
inhibition at 10 µM: 26%

COc1cccc(C#Cc2ccc(N3CCN(C(=O)c4cc(Cl)ccc4Cl)CC3)nc2)c1 [Example 31, 2,5-Dichlorophenyl-4-{5-[2-(3-methoxyphenyl)-1-ethynyl]-2-pyridyl}piperazino-methanone]
inhibition at 10 µM: 21%

COC(=O)c1ccc(C#Cc2ccc(N3CCN(C(=O)c4ccccc4C(F)(F)F)CC3)nc2)cc1 [Example 32]
inhibition at 10 µM: 35%

O=C(c1ccccc1C(F)(F)F)N1CCN(c2ccc(C#Cc3cccc(CO)c3)cn2)CC1 [Example 33, 4-{5-[2-(3-Hydroxymethylphenyl)-1-ethynyl]-2-pyridyl}piperazino-2-trifluoromethyl-phenylmethanone]
inhibition at 10 µM: 20%

CCOC(=O)c1cc(C#Cc2ccc(N3CCN(C(=O)c4ccccc4C(F)(F)F)CC3)nc2)ccc1OC(C)=O [Example 34]
inhibition at 10 µM: 29%

O=C(O)c1cc(C#Cc2ccc(N3CCN(C(=O)c4ccccc4C(F)(F)F)CC3)nc2)ccc1O [Example 35, 2-Hydroxy-5-(2-{6-[4-(2-trifluoromethylbenzoyl)piperazino]-3-pyridyl}-1-ethynyl)-benzoic acid]
inhibition at 10 µM: 36%

CC(=O)Nc1cccc(C#Cc2ccc(N3CCN(C(=O)c4ccccc4C(F)(F)F)CC3)nc2)c1 [Example 36, N1-[3-(2-{6-[4-(2-Trifluoromethylbenzoyl)piperazino]-3-pyridyl}-1-ethynyl)phenyl]acetamide]
inhibition at 10 µM: 23%

O=C(c1ccccc1C(F)(F)F)N1CCN(c2ccc(C#Cc3ccc(O)cc3)nn2)CC1 [Example 37]
inhibition at 10 µM: 89%

O=C(c1ccccc1C(F)(F)F)N1CCN(c2ccc(C#Cc3cccc(O)c3)nn2)CC1 [Example 38, 4-{6-[2-(3-Hydroxyphenyl)-1-ethynyl]-3-pyridazinyl}piperazino-2-trifluoromethyl-phenylmethanone]
inhibition at 10 µM: 99%

O=C(c1ccccc1C(F)(F)F)N1CCN(c2ccc(C#Cc3ccc(F)cc3)nn2)CC1 [Example 39]
inhibition at 10 µM: 75%

O=C(c1ccccc1C(F)(F)F)N1CCN(c2ccc(C#Cc3ccc(F)c(F)c3)nn2)CC1 [Example 40, 4-{6-[2-(3,4-Difluorophenyl)-1-ethynyl]-3-pyridazinyl}piperazino-2(trifluoromethyl)-phenylmethanone]
inhibition at 10 µM: 81%

O=C(c1ccccc1C(F)(F)F)N1CCN(c2ccc(C#Cc3ccc(C(F)(F)F)cc3)nn2)CC1 [Example 41, 2-Trifluoromethylphenyl-4-{6-[2-(4-trifluoromethylphenyl)-1-ethynyl]-3-pyridazinyl}-piperazinomethanone]
inhibition at 10 µM: 93%

O=C(c1ccccc1C(F)(F)F)N1CCN(c2ncc(C#Cc3ccc(O)cc3)cn2)CC1 [Example 42, 4-{5-[2-(4-Hydroxyphenyl)-1-ethynyl]-2-pyrimidinyl}piperazino-2-trifluoromethyl-phenylmethanone]
inhibition at 10 µM: 92%

O=C(c1ccccc1C(F)(F)F)N1CCN(c2ncc(C#Cc3cccc(O)c3)cn2)CC1 [Example 43]
inhibition at 10 µM: 98%

CCOC(=O)c1ccc(C#Cc2ccc(N3CCN(C(=O)c4ccccc4C(F)(F)F)CC3)nc2)nc1 [Example 44]
inhibition at 10 µM: 37%

O=C(c1ccccc1C(F)(F)F)N1CCN(c2ccc(C#Cc3cnccn3)cn2)CC1 [Example 45]
inhibition at 10 µM: 43%

O=C(c1cc(Cl)ccc1Cl)N1CCN(c2ccc(C#Cc3cnccn3)cn2)CC1 [Example 46]
inhibition at 10 µM: 29%

CCCCn1ccnc1C#Cc1ccc(N2CCN(C(=O)c3ccccc3C(F)(F)F)CC2)nc1 [Example 47, 4-{5-[2-(1-Butyl-1H-2-imidazolyl)-1-ethynyl]-2-pyridyl}piperazino-2-trifluoromethyl-phenylmethanone]
inhibition at 10 µM: 33%

CC(C)CCn1ccnc1C#Cc1ccc(N2CCN(C(=O)c3ccccc3C(F)(F)F)CC2)nc1 [Example 48]
inhibition at 10 µM: 22%

O=C(c1ccccc1C(F)(F)F)N1CCN(c2ccc(C#Cc3ccc4[nH]ccc4c3)cn2)CC1 [Example 49, 4-{5-[2-(1H-5-Indolyl)-1-ethynyl]-2-pyridyl}piperazino-2-trifluoromethylphenyl-methanone]
inhibition at 10 µM: 91%

O=C(c1ccccc1C(F)(F)F)N1CCN(c2ncc(C#Cc3ccc4[nH]ccc4c3)cn2)CC1 [Example 50, 4-{5-[2-(1H-5-Indolyl)-1-ethynyl]-2-pyrimidinyl}piperazino-2-trifluoromethylphenyl-methanone]
inhibition at 10 µM: 66%

O=C(c1ccccc1C(F)(F)F)N1CCN(c2ncc(C#Cc3ccc(N4CCCS4(=O)=O)cc3)cn2)CC1 [Example 51]
inhibition at 10 µM: 22%

O=C(c1ccccc1C(F)(F)F)N1CCN(c2ncc(C#Cc3ccc(-n4cccc4)cc3)cn2)CC1 [Example 52]
inhibition at 10 µM: 39%

CC(=O)Oc1ccc(C#Cc2cnc(N3CCN(C(=O)c4ccccc4C(F)(F)F)CC3)s2)cc1 [Example 53, 4-(2-{2-[4-(2-Trifluoromethylbenzoyl)piperazino]-1,3-thiazol-5-yl}-1-ethynyl)phenyl acetate]
inhibition at 10 µM: 47%

N#Cc1cccc(C#Cc2ccc(N3CCN(C(=O)C4CCCC4)CC3)nn2)c1 [Example 54, 3-({6-[4-(Cyclopentylcarbonyl)piperazin-1-yl]pyridazin-3-yl}ethynyl)benzonitrile]
inhibition at 10 µM: 47%

Oc1cccc(C#Cc2ccc(N3CCN(CC4CC4)CC3)nn2)c1 [Example 55, 3-({6-[4-(Cyclopropylmethyl)piperazin-1-yl]pyridazin-3-yl}ethynyl)phenol]
inhibition at 10 µM: 60%

CC(=O)Oc1cccc(C#Cc2ccc(N3CCN(CC4CCCCC4)CC3)nn2)c1 [Example 56]
inhibition at 10 µM: 92%

Oc1cccc(C#Cc2ccc(N3CCN(CC4CCCCC4)CC3)nn2)c1 [Example 57, 3-({6-[4-(Cyclohexylmethyl)piperazin-1-yl]pyridazin-3-yl}ethynyl)phenol]
inhibition at 10 µM: 96%

Fc1ccccc1CN1CCN(c2ccc(C#CC3CCCCO3)nn2)CC1 (stereo not drawn) [Example 58]
inhibition at 10 µM: 6%

Oc1cccc(C#Cc2ccc(N3CCN(Cc4ccccc4F)CC3)nn2)c1 [Example 60, 3-({6-[4-(2-Fluorobenzyl)piperazin-1-yl]pyridazin-3-yl}ethynyl)phenol]
inhibition at 10 µM: 95%

CC(=O)Oc1ccc(C#Cc2ccc(N3CCC(O)(Cc4ccccc4)CC3)nn2)cc1 [Example 61, 4-{[6-(4-Benzyl-4-hydroxypiperidin-1-yl)pyridazin-3-yl]ethynyl}phenyl acetate]
inhibition at 10 µM: 97%

Oc1ccc(C#Cc2ccc(N3CCC(O)(Cc4ccccc4)CC3)nn2)cc1 [Example 62, 4-Benzyl-1-{6-[(4-hydroxyphenyl)ethynyl]pyridazin-3-yl}piperidin-4-ol]
inhibition at 10 µM: 99%

Oc1ccc(C#Cc2ccc(N3CCC(O)(Cc4ccccc4F)CC3)nn2)cc1 [Example 63, 4-(2-Fluorobenzyl)-1-{6-[(4-hydroxyphenyl)ethynyl]pyridazin-3-yl}piperidin-4-ol]
inhibition at 10 µM: 94%

CC(=O)Oc1ccc(C#Cc2ccc(N3CCC(O)(Cc4cc(Cl)ccc4Cl)CC3)nn2)cc1 [Example 64]
inhibition at 10 µM: 87%

Oc1ccc(C#Cc2ccc(N3CCC(O)(Cc4cc(Cl)ccc4Cl)CC3)nn2)cc1 [Example 65, 1-{6-[(4-Hydroxyphenyl)ethynyl]pyridazin-3-yl}-4-(2,5-dichlorobenzyl)piperidin-4-ol]
inhibition at 10 µM: 93%

CC(=O)Oc1ccc(C#Cc2ccc(N3CC(Oc4ccccc4F)C3)nn2)cc1 [Example 66]
inhibition at 10 µM: 94%

Oc1ccc(C#Cc2ccc(N3CC(Oc4ccccc4F)C3)nn2)cc1 [Example 67]
inhibition at 10 µM: 96%

Fc1ccccc1OC1CCN(c2ccc(C#Cc3ccc4c(c3)OCO4)cn2)CC1 [Example 72]
inhibition at 10 µM: 38%

Fc1ccccc1OC1CCN(c2ccc(C#Cc3cccnc3)cn2)CC1 [Example 73, 4-(2-Fluorophenoxy)-1-{5-[2-(3-pyridyl)-1-ethynyl]-2-pyridyl}piperidine]
inhibition at 10 µM: 37%
